Data on two molecules can be found in publication PMC9870012 (Journal of Enzyme Inhibition and Medicinal Chemistry, 2023).

One series has as its target T1, human meprin α (Homo sapiens, UniProt Q16819).
T1 sequence (Q16819 66-746): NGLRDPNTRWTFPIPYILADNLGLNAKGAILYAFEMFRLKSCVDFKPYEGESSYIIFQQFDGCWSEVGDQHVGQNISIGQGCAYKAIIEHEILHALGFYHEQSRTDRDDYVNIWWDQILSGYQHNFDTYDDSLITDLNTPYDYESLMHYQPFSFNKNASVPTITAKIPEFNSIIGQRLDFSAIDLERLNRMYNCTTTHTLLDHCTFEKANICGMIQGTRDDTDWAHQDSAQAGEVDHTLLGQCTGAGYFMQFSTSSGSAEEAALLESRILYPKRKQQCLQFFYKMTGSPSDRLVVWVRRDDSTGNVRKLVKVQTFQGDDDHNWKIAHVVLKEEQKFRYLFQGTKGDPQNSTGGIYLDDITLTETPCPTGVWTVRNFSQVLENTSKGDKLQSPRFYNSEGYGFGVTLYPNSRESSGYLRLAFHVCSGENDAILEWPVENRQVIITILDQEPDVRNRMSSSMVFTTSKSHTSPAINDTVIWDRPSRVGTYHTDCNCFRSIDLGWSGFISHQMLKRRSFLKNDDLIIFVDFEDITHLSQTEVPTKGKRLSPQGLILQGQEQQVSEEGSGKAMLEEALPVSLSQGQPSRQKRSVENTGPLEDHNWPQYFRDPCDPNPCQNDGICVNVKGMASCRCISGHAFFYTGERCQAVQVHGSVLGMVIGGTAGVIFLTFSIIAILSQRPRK
Format: biochemical. The following applies: for SF: selectivity factor (Ki(app) meprin β/Ki(app) meprin α): meprin α over meprin β.

The target of the next series is T2, human meprin β (Homo sapiens, UniProt Q16820).
T2 sequence (Q16820 62-701): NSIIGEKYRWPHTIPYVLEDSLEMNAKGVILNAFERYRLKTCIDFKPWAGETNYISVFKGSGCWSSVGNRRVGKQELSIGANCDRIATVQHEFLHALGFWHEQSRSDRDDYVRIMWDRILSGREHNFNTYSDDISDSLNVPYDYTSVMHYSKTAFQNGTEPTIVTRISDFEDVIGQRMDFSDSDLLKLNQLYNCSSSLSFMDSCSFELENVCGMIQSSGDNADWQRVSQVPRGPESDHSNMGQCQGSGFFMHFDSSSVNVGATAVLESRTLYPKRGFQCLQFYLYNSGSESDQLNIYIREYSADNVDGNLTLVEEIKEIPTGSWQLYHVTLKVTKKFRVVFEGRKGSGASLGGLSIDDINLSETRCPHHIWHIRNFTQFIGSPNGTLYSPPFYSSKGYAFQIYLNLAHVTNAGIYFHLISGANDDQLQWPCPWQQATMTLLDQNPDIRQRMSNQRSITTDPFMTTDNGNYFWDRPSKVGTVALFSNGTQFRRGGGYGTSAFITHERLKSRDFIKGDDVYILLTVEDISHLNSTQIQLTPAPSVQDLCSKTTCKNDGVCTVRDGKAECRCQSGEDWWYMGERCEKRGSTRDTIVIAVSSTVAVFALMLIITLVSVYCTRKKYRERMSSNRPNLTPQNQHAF
The format is biochemical.

For the next series, the target named is T3, MMP2 (Homo sapiens, UniProt P08253).
T3 sequence (P08253 110-660): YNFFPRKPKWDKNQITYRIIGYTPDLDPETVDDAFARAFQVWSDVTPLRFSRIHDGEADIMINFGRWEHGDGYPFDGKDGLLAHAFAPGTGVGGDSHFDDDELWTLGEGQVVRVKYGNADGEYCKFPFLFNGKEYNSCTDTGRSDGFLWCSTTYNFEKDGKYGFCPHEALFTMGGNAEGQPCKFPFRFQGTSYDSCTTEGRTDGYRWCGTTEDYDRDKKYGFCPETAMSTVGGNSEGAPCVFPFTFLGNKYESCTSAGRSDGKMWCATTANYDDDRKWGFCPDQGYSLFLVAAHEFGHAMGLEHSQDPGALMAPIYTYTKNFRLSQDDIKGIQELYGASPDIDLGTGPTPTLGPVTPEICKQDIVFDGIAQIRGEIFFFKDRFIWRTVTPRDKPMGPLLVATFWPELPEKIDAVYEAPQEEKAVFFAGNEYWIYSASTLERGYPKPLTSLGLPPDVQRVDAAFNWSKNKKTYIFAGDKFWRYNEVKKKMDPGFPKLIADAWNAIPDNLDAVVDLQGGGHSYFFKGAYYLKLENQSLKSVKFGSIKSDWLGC
The series can be described thus: Off-target metalloprotease inhibition, MMP2. The format is biochemical. The conditions noted are these: read-out: Residual activity MMP2.

Another series has as its target MMP9 (Homo sapiens, UniProt P14780). The series is described as follows: Off-target metalloprotease inhibition, MMP9. Format: biochemical. The following applies: read-out: Residual activity MMP9.
A further series addresses MMP13 (Homo sapiens, UniProt P45452). The series is described as follows: Off-target metalloprotease inhibition, MMP13. The format is biochemical. The conditions noted are these: read-out: Residual activity MMP13.
The next series deals with T4, ADAM10 (Homo sapiens, UniProt O14672).
T4 sequence (O14672 214-748): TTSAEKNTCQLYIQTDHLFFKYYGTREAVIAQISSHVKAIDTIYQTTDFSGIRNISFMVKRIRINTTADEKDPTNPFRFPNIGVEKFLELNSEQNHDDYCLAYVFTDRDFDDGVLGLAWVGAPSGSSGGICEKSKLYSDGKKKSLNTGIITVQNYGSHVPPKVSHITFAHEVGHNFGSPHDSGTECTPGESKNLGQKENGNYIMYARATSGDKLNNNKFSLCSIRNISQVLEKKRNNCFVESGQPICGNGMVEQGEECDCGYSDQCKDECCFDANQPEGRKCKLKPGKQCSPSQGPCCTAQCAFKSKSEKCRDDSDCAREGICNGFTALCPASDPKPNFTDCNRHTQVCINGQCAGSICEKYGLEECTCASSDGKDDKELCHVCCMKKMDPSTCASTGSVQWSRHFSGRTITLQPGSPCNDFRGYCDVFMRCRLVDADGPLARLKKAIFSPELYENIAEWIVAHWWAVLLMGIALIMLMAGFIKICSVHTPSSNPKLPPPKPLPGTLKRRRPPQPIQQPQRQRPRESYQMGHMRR
The series is described as follows: Off-target metalloprotease inhibition, ADAM10. The conditions noted are these: read-out: Residual activity ADAM10. Format: biochemical.

For a further series, the target named is ADAM17 (Homo sapiens, UniProt P78536). The series can be described thus: Off-target metalloprotease inhibition, ADAM17. The following applies: read-out: Residual activity ADAM17. Format: biochemical.
ADAM17, sequence (P78536 215-824): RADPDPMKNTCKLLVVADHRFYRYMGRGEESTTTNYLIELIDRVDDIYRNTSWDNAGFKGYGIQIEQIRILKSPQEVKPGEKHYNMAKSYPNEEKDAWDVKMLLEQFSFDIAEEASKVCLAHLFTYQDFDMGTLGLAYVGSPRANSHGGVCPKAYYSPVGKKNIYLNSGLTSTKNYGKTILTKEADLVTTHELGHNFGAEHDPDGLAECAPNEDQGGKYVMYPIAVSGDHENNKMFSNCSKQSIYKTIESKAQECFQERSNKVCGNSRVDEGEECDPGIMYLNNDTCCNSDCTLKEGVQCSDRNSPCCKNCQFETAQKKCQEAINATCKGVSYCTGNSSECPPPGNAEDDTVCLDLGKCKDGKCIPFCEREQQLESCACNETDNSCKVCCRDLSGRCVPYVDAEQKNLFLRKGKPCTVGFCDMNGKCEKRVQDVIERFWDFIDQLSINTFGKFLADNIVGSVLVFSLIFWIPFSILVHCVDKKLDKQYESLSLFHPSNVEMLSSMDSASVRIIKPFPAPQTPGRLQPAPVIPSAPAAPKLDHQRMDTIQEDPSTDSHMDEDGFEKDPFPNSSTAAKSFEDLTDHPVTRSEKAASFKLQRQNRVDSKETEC
A short description of series [1]: Cell viability assay. Format: cell-based. The conditions noted are these: human, Hep-G2 cells.
Series [2] can be described thus: Cell viability assay. The format is cell-based. The following applies: human, SH-SY5Y cells.
A further series relates to MMPs and ADAMs. The series can be described thus: Off-target metalloprotease panel. The format is biochemical, human. The conditions noted are these: 10 µM inhibitor concentration.

MMP9, sequence (P14780 107-707 limits assumed): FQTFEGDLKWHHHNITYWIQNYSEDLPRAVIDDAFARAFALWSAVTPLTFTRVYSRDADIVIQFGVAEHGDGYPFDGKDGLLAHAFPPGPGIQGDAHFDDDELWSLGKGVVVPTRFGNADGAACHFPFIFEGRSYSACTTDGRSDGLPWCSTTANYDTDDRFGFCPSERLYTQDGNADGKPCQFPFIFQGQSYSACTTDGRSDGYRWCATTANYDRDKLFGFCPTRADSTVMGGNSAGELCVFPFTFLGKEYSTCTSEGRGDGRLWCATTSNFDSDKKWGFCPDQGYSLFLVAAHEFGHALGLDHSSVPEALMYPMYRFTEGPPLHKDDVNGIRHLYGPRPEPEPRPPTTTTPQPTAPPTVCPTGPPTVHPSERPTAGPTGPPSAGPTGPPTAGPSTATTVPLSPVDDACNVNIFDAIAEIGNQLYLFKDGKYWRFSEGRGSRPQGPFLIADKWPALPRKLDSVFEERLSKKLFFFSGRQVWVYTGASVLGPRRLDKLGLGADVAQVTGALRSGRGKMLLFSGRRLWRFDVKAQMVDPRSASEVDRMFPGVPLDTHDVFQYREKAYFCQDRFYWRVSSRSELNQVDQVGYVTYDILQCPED

For the molecule `O=C(Cc1c(-c2cccc(C(=O)O)c2)n[nH]c1-c1cc(F)c(O)c(Cl)c1)NO` [16j, 3-[5-(3-Chloro-5-fluoro-4-hydroxy-phenyl)-4-[2-(hydroxyamino)-2-oxo-ethyl]-1H-pyrazol-3-yl]benzoic acid], the Ki on human meprin α (Ki(app) Meprin α, geometric mean of three independent experiments with standard deviation factor) is 0.1 nM; at human meprin β (Ki(app) Meprin β, geometric mean of three independent experiments with standard deviation factor), 0.2 nM. Also, the “SF: selectivity factor (Ki(app) meprin β/Ki(app) meprin α)” value on human meprin α stood at 2. Also, the remaining activity at 10 µM on MMP2 is 95%; at MMP9 it was 94%; at MMP13, 105%; on ADAM10, 90%; at ADAM17, 99%. Moreover, the figures for the viability at 24 h, 30 µM in the series “Cell viability assay [1]” and in “Cell viability assay [2]” were 98% and 110%, respectively. The “residual activities of the respective MMPs and ADAMs” value in the series on MMPs and ADAMs is “above 90%”.

As for `O=C(CCc1c(-c2ccccc2)nn(Cc2ccc(Cl)c(O)c2F)c1-c1ccccc1)NO` [compound 22, 3-[1-[(4-Chloro-2-fluoro-3-hydroxy-phenyl)methyl]-3,5-diphenyl-pyrazol-4-yl]propane-hydroxamic acid], the “SF: selectivity factor (Ki(app) meprin β/Ki(app) meprin α)” value at human meprin α came to 7892. The “activity against meprin β dropped by factor” value on human meprin β (compared to 21i) is about 120. Further, the remaining activity at 10 µM is 102% at MMP2; 100% on MMP9; 98% at MMP13; 117% at ADAM10; 90% on ADAM17. The viability at 24 h, 30 µM in “Cell viability assay [1]” was found to be 100%; in “Cell viability assay [2]”, 98%.

Broadly, the viability is a read-out of living cells in per cent, often relative to untreated cells.
